Measured values taken from patent US20050239656A1, “Pyridine compounds or salts thereof and herbicides containing the same” (priority 2002, published 2005).

Columns and labels:
[1] = system: japanese bulrush; assay: Test Example 3: paddy pot test, application under submerged conditions; format: in vivo, Scirpus juncoides; details: active ingredient 250 g/ha; submerged application at 0.5 leaf stage; visually observed 14 days after application; 0 = non-treated, 100 = complete kill
Outline: (§1)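 Visual growth-control rating (0 = untreated, 100 = complete kill) 14 days after treatment. The formulated compound, as a diluted wettable powder or emulsifiable concentrate, went into 3–4 cm flood water at a predetermined active-ingredient dose once the weeds reached 0.5 leaf stage (wapato: primary leaf stage).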

[2] = system: green foxtail; assay: Test Example 2: soil surface treatment, upland pot test; format: in vivo, Setaria viridis L.; details: active ingredient 500 g/ha
Description: (§2) Upland field soil was put into a 1/170,000 ha pot, and seed of various plants (barnyardgrass, crabgrass, green foxtail, redroot pigweed, prickly sida, velvetleaf, rice, wheat, corn, soybean) were sown. On the 1st day after the sowing, a wettable powder or emulsifiable concentrate having the compound of the present invention formulated in accordance with a usual formulation method, was weighed so that the active ingredient would be a predetermined amount, and diluted with water in an amount of 1,500 L/ha. The herbicide thus adjusted was applied by a small size sprayer for soil surface treatment. On the 20th to 28th days after the application of the herbicide, the growth of the respective plants was visually observed, and the herbicidal effects were evaluated by the growth controlling degrees (%) ranging from 0 (equivalent to the non-treated plot) to 100 (complete kill), whereby the results shown in Table 4, were obtained.

[3] = system: velvetleaf; assay: as above; format: in vivo, Abutilon theophrasti MEDIC.; details: active ingredient 500 g/ha
Description: as §2

[4] = system: prickly sida; assay: as above; format: in vivo, Sida spinosa L.; details: active ingredient 500 g/ha
Description: as §2

[5] = system: barnyardgrass; assay: as above; format: in vivo, Echinochloa crus-galli L.; details: active ingredient 500 g/ha
Description: as §2

[6] = system: japanese ribbon wapato; assay: Test Example 3: paddy pot test, application under submerged conditions; format: in vivo, Sagittaria pygniaea; details: active ingredient 250 g/ha; submerged application at primary leaf stage; visually observed 14 days after application; 0 = non-treated, 100 = complete kill
Outline: as §1

[7] = system: soybean; assay: Test Example 2: soil surface treatment, upland pot test; format: in vivo, Glycine max Merr.; details: active ingredient 500 g/ha
Description: as §2

[8] = system: redroot pigweed; assay: as above; format: in vivo, Amaranthus retroflexus L.; details: active ingredient 500 g/ha
Description: as §2

[9] = system: rice; assay: as above; format: in vivo, Oryza sativa L.; details: active ingredient 500 g/ha
Description: as §2

[10] = system: corn; assay: as above; format: in vivo, Zea mays L.; details: active ingredient 500 g/ha
Description: as §2

[11] = system: barnyardgrass; assay: Test Example 3: paddy pot test, application under submerged conditions; format: in vivo, Echinochloa crus-galli L.; details: active ingredient 250 g/ha; submerged application at 0.5 leaf stage; visually observed 14 days after application; 0 = non-treated, 100 = complete kill
Outline: as §1

[12] = system: crabgrass; assay: Test Example 2: soil surface treatment, upland pot test; format: in vivo, Digitaria sanguinalis L.; details: active ingredient 500 g/ha
Description: as §2

[13] = system: rice (var. Nihonbare); assay: Test Example 3: paddy pot test, transplanted rice; format: in vivo, Oryza sativa L.; details: active ingredient 250 g/ha, applied 4th day after transplantation, visually observed 21st day after application, 0 = non-treated, 100 = complete kill
Outline: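 Rice (var. Nihonbare) at 2 leaf stage transplanted 3 cm deep into puddled paddy soil under 3–4 cm flooding; on day 4 after transplanting, diluted wettable powder or emulsifiable concentrate applied by pipette under submerged conditions at a set active-ingredient dose. Growth scored visually 21 days after application, 0 (untreated) to 100 (complete kill) %.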

[14] = observed day 21, 0 = non-treated, 100 = complete kill

SMILES	Growth controlling degree (%) Japanese bulrush [1] [%]	Growth controlling degree (%) Green foxtail ([2]; observed 20th to 28th day) [%]	Growth controlling degree (%) Velvetleaf ([3]; observed 20th to 28th day) [%]	Growth controlling degree (%) Prickly sida ([4]; observed 20th to 28th day) [%]	Growth controlling degree (%) Barnyardgrass ([5]; observed 20th to 28th day) [%]	Growth controlling degree (%) Japanese ribbon wapato [6] [%]	Growth controlling degree (%) Soyabean ([7]; observed 20th to 28th day) [%]	Growth controlling degree (%) Redroot pigweed ([8]; observed 20th to 28th day) [%]	Growth controlling degree (%) Rice ([9]; observed 20th to 28th day) [%]	Growth controlling degree (%) Corn ([10]; observed 20th to 28th day) [%]	Growth controlling degree (%) Barnyardgrass [11] [%]	Growth controlling degree (%) Crabgrass ([12]; observed 20th to 28th day) [%]	Growth controlling degree (%) Rice [13] [%]	Growth controlling degree (%) Green foxtail [2, 14] [%]	Growth controlling degree (%) Velvetleaf [3, 14] [%]	Growth controlling degree (%) Prickly sida [4, 14] [%]	Growth controlling degree (%) Barnyardgrass [5, 14] [%]	Growth controlling degree (%) Soyabean [7, 14] [%]	Growth controlling degree (%) Redroot pigweed [8, 14] [%]	Growth controlling degree (%) Rice [9, 14] [%]	further results
CC(C)C(c1cnccc1C(F)(F)F)N(C)C(=O)COc1cccc(F)c1 (stereo not drawn) [Compound I-242]	95	100	70	98	98	70	10	90	10	40	100	98	0	–	–	–	–	–	–	–	–
CC(C)C(c1cnccc1C(F)(F)F)N(C)C(=O)COc1ccccc1F (stereo not drawn) [Compound I-243]	98	100	30	90	90	70	10	80	10	40	100	100	0	–	–	–	–	–	–	–	–
CC(C)C(c1cnccc1C(F)(F)F)N(C)C(=O)COc1cc(F)ccc1F (stereo not drawn) [Compound I-245]	95	–	–	–	–	70	–	–	–	–	100	–	10	80	0	70	90	40	50	35	Growth controlling degree (%) Corn [10, 14]: 50%; Growth controlling degree (%) Crabgrass [12, 14]: 80%
CC(C)C(c1cnccc1C(F)(F)F)N(C)C(=O)COc1ccc(F)cc1F (stereo not drawn) [Compound I-246]	98	–	–	–	–	70	–	–	–	–	100	–	10	98	30	80	98	40	50	20	Growth controlling degree (%) Corn [10, 14]: 40%; Growth controlling degree (%) Crabgrass [12, 14]: 95%
CC(C)C(c1cnccc1Cl)N(C)C(=O)Cc1ccc(Cl)cc1 (stereo not drawn) [I-82]	98	70	0	0	80	0	0	60	30	10	98	90	30	–	–	–	–	–	–	–	–
Cc1cccc(CC(=O)N(C)C(c2cnccc2C(F)(F)F)C(C)C)c1 (stereo not drawn) [I-87]	90	95	70	100	100	70	0	85	0	40	100	98	0	–	–	–	–	–	–	–	–
